One assay deals with cavernous body. Put plainly: Relaxation in vitro of cavernous body tissue precontracted with phenylephrine. The assay is classed as cell-based, White New Zealand rabbits. The following applies: for Cavernous body % relaxation: tissue precontracted with phenylephrine 10 μM; for Power ratio: ratio between myorelaxing effect on cavernous body and effect on aorta. The source says:
(§1) The relaxing effect of the tested drugs on carvernous body tissues has been evaluated with experiments in vitro as a measure of the inhibiting action on the impotence, and on aorta tissues as expression of the undesired hypotensive effect.
(§2) White New Zealand rabbits were sacrificed, cavernous body and aorta specimens were taken and suitably prepared for the determination of the myorelaxing activity in vitro, according to the procedure described by J. Jeremy (Br. J. Urology 79,958-63,1997).
(§3) The tissues were precontracted with phenylephrine (10 μM) and the relaxation was determined in the presence of the compounds object of the invention.
(§4) The 2-(acetyloxy)benzoic acid 6-(nitroxy methyl)-2-methylpyridyl ester hydrochloride (NCX 4050) is prepared as described in patent application PCT/EP 00/01454 (Ex. 1) , the sildenafil nitrate has been prepared as described in patent application WO 99/67231 (Ex. 3). The products used in the experiment were dissolved in dimethylsulphoxide, except sodium nitroprussiate which was dissolved in distilled water.

Another assay relates to aorta. In words: Relaxation in vitro of aorta tissue precontracted with phenylephrine (undesired hypotensive effect). It counts as cell-based, White New Zealand rabbits. The following applies: tissue precontracted with phenylephrine 10 μM.
Excerpt: as §1, §2, §3, §4

The subject of assay [1] is aorta tissues pretreated with sodium nitroprussiate. In words: Aorta relaxation in vitro in the presence of the NO-donor sodium nitroprussiate. The assay is classed as cell-based, white New Zealand rabbits. The following applies: 10^−7 M; for Aorta relaxation: strips first treated with sodium nitroprussiate 10^−7 M, percentage with respect to the initial sodium nitroprussiate treatment. The method, then: The experiment was carried out as described in the previous Example, by using aorta tissues taken from white New Zealand rabbits.

Structures can show the parent of a compound that is named as a salt.

Consider `CC(=O)Oc1ccccc1C(=O)Oc1ccc(CO[N+](=O)[O-])nc1C.Cl` [NCX 4050, 2-(acetyloxy)benzoic acid 6-(nitroxymethyl)-2-methylpyridyl ester hydrochloride], for which, in the assay on cavernous body (concentration 10^-6 M), the “Cavernous body % relaxation” value stood at 80% and the Power ratio amounted to 1. In the assay on aorta (concentration 10^-6 M), this compound displayed an Aorta % of 80%.

Consider `CCCc1nn(C)c2c(=O)[nH]c(-c3cc(S(=O)(=O)N4CCN(C)CC4)ccc3OCC)nc12` [Sildenafil Citrate, sildenafil citrate, reference compound], for which the “Cavernous body % relaxation” value in the assay on cavernous body (concentration 3 × 10^-5 M) is listed as 50%. This compound showed an Aorta % in the assay on aorta (concentration 3 × 10^-5 M) of 75%. For the same compound, the Aorta relaxation in assay [1] came to 170%.

For sildenafil nitrate, in the assay on cavernous body (concentration 10^-6 M), the “Cavernous body % relaxation” value was 100% and the Power ratio came out at 5. The Power ratio entry in the assay on cavernous body (concentration 10^-6 M, listed as sildenafil nitrate) was “clearly in favour of the myorelaxing effect”. The compound further came in with an Aorta % in the assay with aorta (concentration 10^-6 M) of 20%. In addition, in assay [1] (aorta strips pretreated with sodium nitroprussiate 10^−7 M), the “Strengthening of the relaxing effect induced by sodium nitroprussiate (hypotensive effect), in words” value was “lower strengthening of the relaxing effect induced by sodium nitroprussiate compared with the sildenafil citrate”. The Aorta relaxation in assay [1] was determined as 120%.

The values above are taken from patent US20030171393A1, “Drugs for sex dysfunctions” (priority 2000, published 2003).
